From patent US20220128542A1, “TREATMENT EFFICIENCY EVALUATION” (TX MEDIC AB, priority 2019, published 2022)
Marks after values point to notes of the source that are not given here.

System: brain of rats subjected to severe traumatic brain injury (sTBI)
Assay: HPLC of free amino acids and amino group containing compounds in brain after sTBI (Example 1)
Type: in vivo, rat
Experimental: They were divided into three groups:
1) n=6 animals subjected to sTBI, with drug administration after 30 minutes and sacrifice at 2 days post-TBI (Acute phase 1)
2) n=6 animals subjected to sTBI, with drug administration after 30 minutes and sacrifice at 7 days post-TBI (Acute phase 2).
3) n=6 animals subjected to sTBI, with drug administration after 3 days and sacrifice at 7 days post-TBI (Chronic phase).
The drug treatment was a subcutaneous injection of 0.5 ml of LMW-DS (15 mg/kg) and administered according to the aforementioned schematic protocol.
After the wet weight (w.w.) determination, tissue preparation was affected as previously disclosed (Tavazzi et al., Neurosurgery. 2005; 56: 582-589; Vagnozzi et al., Neurosurgery. 2007; 61: 379-388; Tavazzi et al., Neurosurgery. 2007; 61: 390-395; Amorini et al., J Cell Mol Med. 2017; 21: 530-542.). Briefly, whole brain homogenization was performed with 7 ml of ice-cold, nitrogen-saturated, precipitating solution composed by CH3CN+10 mM KH2PO4, pH 7.40, (3:1; v:v), and using an Ultra-Turrax set at 24,000 rpm/min (Janke & Kunkel, Staufen, Germany). After centrifugation at 20,690×g, for 10 min at 4° C., the clear supernatants were saved, pellets were supplemented with 3 ml of the precipitating solution and homogenized again as described above. A second centrifugation was performed (20,690×g, for 10 min at 4° C.), pellets were saved, supernatants combined with those previously obtained, extracted by vigorous agitation with a double volume of HPLC-grade CHCl3 and centrifuged as above. The upper aqueous phases containing water-soluble low-molecular weight compounds were collected, subjected to chloroform washings for two more times (this procedure allowed the removal of all the organic solvent and of any lipid soluble compound from the buffered tissue extracts), adjusted in volumes with 10 mM KH2PO4, pH 7.40, to have ultimately aqueous 10% tissue homogenates and saved at −80° C. until assayed.
The simultaneous determination of primary free amino acids (FAA) and amino group containing compounds (AGCC) (listed below) was performed using the precolumn derivatization of the sample with a mixture of Ortho-phthalaldehyde (OPA) and 3-Mercaptopropionic acid (MPA), as described in detail elsewhere (Amorini et al., J Cell Mol Med. 2017; 21: 530-542; Amorini et al., Mol Cell Biochem. 2012; 359: 205-216). […] The automated precolumn derivatization of the samples (15 μl) with OPA-MPA was carried out at 24° C. and 25 μl of the derivatized mixture were loaded onto the HPLC column (Hypersil C-18, 250×4.6 mm, 5 μm particle size, thermostated at 21° C.) for the subsequent chromatographic separation. In the case of glutamate, deproteinized brain extracts were diluted 20 times with HPLC-grade H2O prior to the derivatization procedure and subsequent injection. Separation of OPA-AA and OPA-AGCC was carried out at a flow rate of 1.2 ml/min using two mobile phases (mobile phase A=24 mmol/l CH3COONa+24 mmol/l Na2HPO4+1% tetrahydrofurane+0.1% trifluoroacetic acid, pH 6.5; mobile phase B=40% CH3OH+30% CH3CN+30% H2O), using an appropriate step gradient (Amorini et al., J Cell Mol Med. 2017; 21: 530-542; Amorini et al., Mol Cell Biochem. 2012; 359: 205-216).
Assignment and calculation of the OPA-AA and OPA-AGCC in chromatographic runs of whole brain extracts were carried out at 338 nm wavelengths by comparing retention times and areas of peaks with those of peaks of chromatographic runs of freshly-prepared ultra-pure standard mixtures with known concentrations. […]

[1] = Acute phase 1: 15 mg/kg s.c. 30 min post-sTBI, sacrifice day 2
[2] = Acute phase 2: 15 mg/kg s.c. 30 min post-sTBI, sacrifice day 7
[3] = Chronic phase: 15 mg/kg s.c. 3 days post-sTBI, sacrifice day 7

sodium salt of dextran sulfate [LMW-DS]
effect on sTBI-induced increase in glutamate (GLU) (15 mg/kg s.c. early post-injury (30 min following sTBI)): remarkable inhibition
effect on glutamate excitotoxicity marker (15 mg/kg s.c. injected at 3 days after sTBI): no efficacy
ALA cerebral concentration [1]: 0.50 ± 0.12^a μmol/g (w.w.)
ARG cerebral concentration [1]: 0.13 ± 0.02^b, d μmol/g (w.w.)
ASN cerebral concentration [1]: 0.12 ± 0.02^i μmol/g (w.w.)
ASP cerebral concentration [1]: 2.40 ± 0.56^d, i μmol/g (w.w.)
CITR cerebral concentration [1]: 0.018 ± 0.004 µmol/g (w.w.)
GABA cerebral concentration [1]: 1.43 ± 0.25^a μmol/g (w.w.)
GLN cerebral concentration [1]: 4.78 ± 1.09^a μmol/g (w.w.)
GLU cerebral concentration [1]: 9.81 ± 1.66^i μmol/g (w.w.)
GLY cerebral concentration [1]: 0.83 ± 0.25^a, c μmol/g (w.w.)
HIS cerebral concentration [1]: 0.068 ± 0.015^b μmol/g (w.w.)
ILE cerebral concentration [1]: 0.038 ± 0.007 µmol/g (w.w.)
L-Cystat cerebral concentration [1]: 0,185 ± 0.031^b, c, i μmol/g (w.w.)
LEU cerebral concentration [1]: 0.021 ± 0.005^a, c μmol/g (w.w.)
LYS cerebral concentration [1]: 0.236 ± 0.057^b, d, h μmol/g (w.w.)
MET cerebral concentration [1]: 0.016 ± 0.005^d, j μmol/g (w.w.)
ORN cerebral concentration [1]: 0.014 ± 0.007 µmol/g (w.w.)
PHE cerebral concentration [1]: 0.031 ± 0.011^b, d μmol/g (w.w.)
SAH cerebral concentration [1]: 0.033 ± 0.008^b, c, j μmol/g (w.w.)
SER cerebral concentration [1]: 0.88 ± 0.25^a μmol/g (w.w.)
TAU cerebral concentration [1]: 4.86 ± 0.85^b μmol/g (w.w.)
THR cerebral concentration [1]: 0.92 ± 0.29^a μmol/g (w.w.)
TRP cerebral concentration [1]: 0.030 ± 0.007^b, dg, i μmol/g (w.w.)
TYR cerebral concentration [1]: 0.15 ± 0.03 µmol/g (w.w.)
VAL cerebral concentration [1]: 0.042 ± 0.011 µmol/g (w.w.)
ALA cerebral concentration [2]: 0.52 ± 0.24^a, e μmol/g (w.w.)
ARG cerebral concentration [2]: 0.16 ± 0.03 µmol/g (w.w.)
ASN cerebral concentration [2]: 0.13 ± 0.03^i μmol/g (w.w.)
ASP cerebral concentration [2]: 2.94 ± 0.98^f, j μmol/g (w.w.)
CITR cerebral concentration [2]: 0.018 ± 0.008 µmol/g (w.w.)
GABA cerebral concentration [2]: 1.60 ± 0.24^a μmol/g (w.w.)
GLN cerebral concentration [2]: 3.66 ± 0.41 µmol/g (w.w.)
GLU cerebral concentration [2]: 9.93 ± 1.56^e, i μmol/g (w.w.)
GLY cerebral concentration [2]: 0.71 ± 0.16^f, i μmol/g (w.w.)
HIS cerebral concentration [2]: 0.055 ± 0.019 µmol/g (w.w.)
ILE cerebral concentration [2]: 0.048 ± 0.017^a μmol/g (w.w.)
L-Cystat cerebral concentration [2]: 0.173 ± 0.038^b, f, i μmol/g (w.w.)
LEU cerebral concentration [2]: 0.018 ± 0.004 µmol/g (w.w.)
LYS cerebral concentration [2]: 0.32 ± 0.04^a, e, i μmol/g (w.w.)
MET cerebral concentration [2]: 0.022 ± 0.006^b, e, i μmol/g (w.w.)
ORN cerebral concentration [2]: 0.011 ± 0.005 µmol/g (w.w.)
PHE cerebral concentration [2]: 0.028 ± 0.010 µmol/g (w.w.)
SAH cerebral concentration [2]: 0.026 ± 0.010^f, i μmol/g (w.w.)
SER cerebral concentration [2]: 0.71 ± 0.28^b μmol/g (w.w.)
TAU cerebral concentration [2]: 3.80 ± 1.19 µmol/g (w.w.)
THR cerebral concentration [2]: 0.66 ± 0.23 µmol/g (w.w.)
TRP cerebral concentration [2]: 0.015 ± 0.006 µmol/g (w.w.)
TYR cerebral concentration [2]: 0.172 ± 0.046^b, f μmol/g (w.w.)
VAL cerebral concentration [2]: 0.057 ± 0.017 µmol/g (w.w.)
ALA cerebral concentration [3]: 0.57 ± 0.28^a, e μmol/g (w.w.)
ARG cerebral concentration [3]: 0.14 ± 0.02 µmol/g (w.w.)
ASN cerebral concentration [3]: 0.18 ± 0.02^a μmol/g (w.w.)
ASP cerebral concentration [3]: 4.46 ± 0.70^a, f μmol/g (w.w.)
CITR cerebral concentration [3]: 0.020 ± 0.006 µmol/g (w.w.)
GABA cerebral concentration [3]: 1.85 ± 0.65^a μmol/g (w.w.)
GLN cerebral concentration [3]: 3.98 ± 0.34 µmol/g (w.w.)
GLU cerebral concentration [3]: 13.58 ± 1.28^a μmol/g (w.w.)
GLY cerebral concentration [3]: 1.05 ± 0.13^a, f μmol/g (w.w.)
HIS cerebral concentration [3]: 0.047 ± 0.021 µmol/g (w.w.)
ILE cerebral concentration [3]: 0.041 ± 0.016^b μmol/g (w.w.)
L-Cystat cerebral concentration [3]: 0.26 ± 0.05^a, f μmol/g (w.w.)
LEU cerebral concentration [3]: 0.024 ± 0.032^b, f μmol/g (w.w.)
LYS cerebral concentration [3]: 0.179 ± 0.036 µmol/g (w.w.)
MET cerebral concentration [3]: 0.009 ± 0.004^b μmol/g (w.w.)
ORN cerebral concentration [3]: 0.017 ± 0.009^a, e μmol/g (w.w.)
PHE cerebral concentration [3]: 0.033 ± 0.011^b μmol/g (w.w.)
SAH cerebral concentration [3]: 0.050 ± 0.013^a μmol/g (w.w.)
SER cerebral concentration [3]: 0.93 ± 0.27^a, e μmol/g (w.w.)
TAU cerebral concentration [3]: 4.49 ± 0.43^a μmol/g (w.w.)
THR cerebral concentration [3]: 0.75 ± 0.24^a, e μmol/g (w.w.)
TRP cerebral concentration [3]: 0.012 ± 0.007 µmol/g (w.w.)
TYR cerebral concentration [3]: 0.21 ± 0.05^f μmol/g (w.w.)
VAL cerebral concentration [3]: 0.040 ± 0.016^b μmol/g (w.w.)
